According to ChEMBL document CHEMBL3639104, “Ring-fused compound” (2015):

Target: T1, Solute carrier family 22 member 12 (Homo sapiens, UniProt Q96S37)
T1 sequence (Q96S37 whole entry): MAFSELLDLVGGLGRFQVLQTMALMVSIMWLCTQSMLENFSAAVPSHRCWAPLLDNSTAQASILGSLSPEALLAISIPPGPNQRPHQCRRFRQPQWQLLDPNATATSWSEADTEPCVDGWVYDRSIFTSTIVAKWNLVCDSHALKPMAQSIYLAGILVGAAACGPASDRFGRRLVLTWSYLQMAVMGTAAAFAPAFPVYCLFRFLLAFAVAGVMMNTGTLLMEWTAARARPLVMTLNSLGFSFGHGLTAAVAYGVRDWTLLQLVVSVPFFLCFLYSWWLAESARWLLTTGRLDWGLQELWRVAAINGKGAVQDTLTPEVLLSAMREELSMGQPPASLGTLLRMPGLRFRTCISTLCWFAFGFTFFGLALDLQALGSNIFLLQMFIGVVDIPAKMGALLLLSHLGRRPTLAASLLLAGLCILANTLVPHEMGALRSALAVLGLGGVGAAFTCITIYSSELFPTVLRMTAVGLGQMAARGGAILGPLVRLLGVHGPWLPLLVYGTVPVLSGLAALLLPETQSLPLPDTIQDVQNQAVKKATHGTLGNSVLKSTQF
Assay: Inhibition Assay: It was introduced human URAT1 full-length cDNA into an expression vector pcDNA5 / FRT / V5-His TOPO (registered trademark) (Invitrogen). The resulting expression plasmids, the liposome method using Lipofectamine LTX (Invitrogen), Chinese hamster ovary cells (hereinafter, referred to as CHO cells) was introduced into, by culturing in a selective medium containing hygromycin and human URAT1 stable The expression cell line we were prepared.Human URAT1 expression CHO cells, 10% fetal calf serum, D-MEM / F-12 containing the hygromycin (1: 1) using a mixed medium, 37 C, were cultured in the presence of 5% CO2. Cells were seeded in 96-well plates (Corning Incorporated) in 0.8x10E+5 cells / well, were subjected to the following uric acid transport inhibition test after 24 hours.After removal of the medium by aspiration, sodium gluconate of cells 125mM, potassium gluconate of 4.8mM, potassium dihydrogen phosphate of 1.2mM, magnesium sulfate of 1.2mM, calcium gluconate of 1.3mM, 5. washed once.
Format: cell-based

Cc1nn(Cc2c(Cl)cccc2Cl)c2cc(C(C)(C)C(=O)O)ccc12
IC50: 0.098 µM

Cc1nn(Cc2c(Cl)cccc2Cl)c2cc(C(C)C(=O)O)ccc12 (configuration not stated)
IC50: 0.075 µM
